Source: patent US20260035479A1, “GD2 BI-SPECIFIC INVARIANT NATURAL KILLER T CELL ENGAGERS AND METHODS OF USE THEREOF” (The Children's Hospital of Philadelphia, priority 2022, published 2026)

Experiments:
[1] = system: patients with advanced solid tumors; settings: Giaccone et al., 2002; cited from earlier work
iNKTs = settings: Parekh, 2005; cited from earlier work
EL4 lymphoma cells = assay: 51Cr-release killing assay of EL4 lymphoma cells with murine hepatic lymphocytes or sorted iNKTs; type: cell-based; settings: for percent specific lysis relative to control: sorted murine iNKTs as effectors, p=0.014 C34 vs control; for percent specific lysis in comparison with control: unsorted hepatic lymphocytes as effectors, 100 ng/mL glycolipid antigen, p=0.0133 C34 vs nothing added
Experimental: FIGS. 9A-9B: iNKT-mediated cytotoxicity with glycolipid antigen (GAg) stimulation. (FIG. 9A) C57BL/6 hepatic lymphocytes (effectors) were co-cultured for 18 hours with ^51Cr-loaded EL4 lymphoma cells (targets) in triplicates at E:T ratios of 2.5:1, 5:1,10:1, 20:1, and 40:1; these cocultures were stimulated with either alpha galactosyl-ceramide (a-GalCer) or C34 at indicated concentrations or left unstimulated (Nothing added). (FIG. 9B) Similar experiments were performed with flow cytometrically sorted murine hepatic iNKTs as effector populations.
^51Cr Killing Assays. EL4 lymphoma cells were used as targets and were labeled with ^51Cr (Perkin-Elmer) at a ratio of 1 μCi per 1×10^6 cells at 37° C. for 1 hour; excess ^51Cr was removed by extensive washing in RPMI media as described previously (Orange et al., 2022). Murine hepatic iNKT-enriched cell populations and flow cytometrically sorted iNKTs were plated in 96-well round-bottom wells. 2×10^5 target cells were then mixed with these iNKTs in each well at designated effector to target ratios with 100 ng/mL of glycolipid antigen in triplicate. After 16 hours, supernatants from each well were transferred to a Deepwell Lumiplate (Perkin Elmer), dried overnight, and then analyzed by a TopCount gamma radiation detector (Perkin Elmer). Spontaneous release was determined by collecting supernatants from cultures of targets alone, while maximum lysis was measured from the supernatants of target cells that were fully lysed with detergent. Percent specific lysis was calculated by the equation: 100× (sample lysis cpm-spontaneously released cpm)/(maximum cpm-spontaneously released cpm), as described previously (Orange et al., 2022).
^51Cr-release killing assays: Percent specific lysis was calculated as described above and triplicate values were analyzed using Graphpad (Prism). Mean values and standard errors of the mean were calculated. Percent specific lysis among the three groups were compared using one-way ANOVA. Significance was set at p value of <0.05.

hepatic iNKTs = assay: Glycolipid antigen-iNKT stimulation in mice, hepatic iNKT cytokine expression by flow cytometry; type: in vivo, C57BL/6 mice; settings: for IFN-γ MFI relative to PBS: n=2; for iNKT expression of intracellular IL-4 vs PBS / iNKT expression of surface CD107a vs PBS / expression of IFN-γ in iNKTs: acute stimulation, 4 μg intraperitoneal; for expression of IFN-γ in iNKTs: livers harvested at hour 4, PBS control 10.1%
Experimental: FIG. 7: iNKT Response to Glycolipid Antigen Stimulation. Two C57BL/6 mice per group were injected with phosphate-buffered saline (PBS), alpha-galactosyl ceramide (a-GalCer), or C34 at hour 0. At hour 4, mice were euthanized, their livers were excised and hepatic lymphocytes isolated and stained for NK1.1+ TCR-β+ mononuclear single cells, and intracellular IFN-γ was assayed by flow cytometry. The IFN-γ positive gate was drawn based on unstained controls. Representative data shown are from one mouse.
FIGS. 8A-8C: Acute and Chronic cytokine expression following GAg-stimulation of iNKTs. Two C57BL/6 mice per group were injected with 4 μg of C34, alpha galactosyl-ceramide (aGC), or Phosphate-Buffered Saline (PBS), in acute or chronic stimulation groups. Hepatic lymphocytes were then isolated and stained for NK1.1, TCR-β, and interferon-gamma (IFN-γ) with intra- and extracellular staining methods. (FIG. 8A) IFN-γ mean fluorescence intensity (MFI) of iNKTs. (FIG. 8B) CD107a MFI of iNKTs. (FIG. 8C) Interleukin-4 MFI of iNKTs.
Glycolipid antigen-iNKT stimulation experiments. C57/BL6 mice were injected with free glycolipid antigen or phosphate-buffered saline (PBS) intraperitoneally at a dose of 4 μg per injection in “acute” and “chronic” exposure situations. In acute stimulation conditions, intraperitoneal injections were given at hour 0, then at hour 4 mice were sacrificed and livers harvested and processed as above. In chronic stimulation conditions, animals received the 4 μg dose of glycolipid antigen days 0, 4, and 7. Livers were then harvested 4 hours after the final intraperitoneal injection and processed as described above. Hepatic mononuclear cells were extracellularly stained with fluorophore-labeled loaded-CD1d tetramer, anti-NK1.1, anti-CD107a, and then fixed and stained intracellularly with anti-IFN-Y, anti-IL-4, anti-TCR-β using a Fixation/Permeabilization kit (BD) and analyzed on FACSVerse flow cytometer (BD).
Data Analysis. Cytokinc expression analysis: FCS files were analyzed using Flowjo (TreeStar) software. Mean fluorescence intensity (MFI) of IFN-γ CD107a, and IL-4 on iNKT cells was compared between PBS, aGC, and C34-stimulated groups using Graphpad (Prism) and compared using Student's t-test between two Groups (ex: PBS vs aGC), and one-way ANOVA for comparison of PBS, aGC, and C34.

[2] = acute stimulation protocol, p=0.012 aGC vs PBS, p=0.0034 C34 vs PBS
[3] = chronic stimulation protocol, three intraperitoneal injections over 7 days, p=0.0010 for C34

| Compound | disease response [1] | dose-limiting toxicities [1] | patients with increased serum GM-CSF and TNF-α [1] | duration of iNKT anergy following stimulation (iNKTs) | percent specific lysis relative to control (EL4 lymphoma cells) | percent specific lysis in comparison with control (EL4 lymphoma cells) | IFN-γ MFI relative to PBS (hepatic iNKTs; [2]) | iNKT expression of intracellular IL-4 vs PBS (hepatic iNKTs) | iNKT expression of surface CD107a vs PBS (hepatic iNKTs) | expression of IFN-γ in iNKTs (hepatic iNKTs) | IFN-γ MFI relative to PBS (hepatic iNKTs; [3]) | IFN-γ MFI, chronic vs acute group (hepatic iNKTs; chronic versus acute stimulation with the same glycolipid) |
| --- | --- | --- | --- | --- | --- | --- | --- | --- | --- | --- | --- | --- |
| CCCCCCCCCCCCCCCCCCCCCCCCCC(=O)N[C@@H](CO[C@H]1O[C@H](CO)[C@H](O)[C@H](O)[C@H]1O)[C@H](O)[C@H](O)CCCCCCCCCCCCCC [aGC, α-GalactosylCeramide] | without disease response | no dose-limiting toxicities | 5 of 24 | up to 6 months | greater | higher | increased | No significant differences | No significant differences | 30.4 % of iNKTs | no difference |  |
| phenyl α-GalactosylCeramide [C34] |  |  |  |  | greater | higher | increased | No significant differences | No significant differences | 71.4 % of iNKTs | greater | not a significant difference |
